These results are taken from patent publication US5654280A, “Pharmaceutical composition” (Perstorp AB, priority 1989, dated 1997).

For assay [1], the system named is binding sites for phosphorylated compounds in membrane preparation from rat brains. Kind of assay: Displacement of tritiated D-myo-inositol-1,3,4,5-tetraphosphate (IP4) from rat brain membrane preparation. The following applies: rat brain plasma membrane fragments saturated with tritiated IP4; remaining radioactivity after addition of compound and washing. The source says: A membrane preparation was obtained from rat brains in a way suitable to provide membrane fragments from plasma membranes. From earlier studies these membrane preparations are known to comprise binding sites for phosphorylated compounds. The physiological role of these binding sites are to regulate for example vascular leakage and oedema formation in the body. The degree of binding of a specific compound to these binding sites predicts the efficiency to counteract vascular leakage in vivo.
The membrane preparation was first saturated with a tritiated control compound. The control compound was D-myo-inositol-1,3,4,5-tetraphosphate (IP4). Addition of a further compound having, increased binding properties, compared to the control compound, will result in a replacement of the control compound and thus in a reduction of the radioactivity in the sample.
The 1,5-anhydro-D-arabinitol-2,3,4-trisphosphate pentakis (cyclohexylammonium) salt obtained in Example 2 was added to a membrane preparation as described above. After washing, the radioactivity was 30% compared to the control compound (IP4), thus showing a significant binding to the preparation.

Assay [2] deals with membrane preparation from rat hearts (binding sites of D-myo-inositol-1,2,6-triphosphate). Kind of assay: Displacement of tritiated D-myo-inositol-1,2,6-triphosphate from rat heart membrane preparation. Particulars: rat heart membranes, 60 minutes in ice, 50 mM HEPES pH 7.4. The procedure: A membrane preparation for binding experiments was prepared at 4° C. Remaining blood was removed from fresh rats hearts (approx. 25 g) and the hearts were minced on chilled plates and blended thoroughly with 20 volumes (v/w) of 0.32M sucrose. The mixture was homogenized using a glass homogenizer followed by centrifugation at 800 g for 10 minutes. The supernatant was thereafter recentrifuged at 21000 g for 20 minutes. The resulting pellets were suspended in 20 volumes of ice cold water before homogenization and centrifugation. The supernatant was collected by pipetting followed by recentrifugation. […]
The assay mixtures were incubated for 60 minutes in ice and binding reactions were terminated by centrifugation for 5 minutes. The surface of the pellets were washed with 1 ml of iced 50 mM HEPES buffer (pH 7.4) before measuring the incorporated radioactivity by means of a scintillation counter.
An IC50 value can be determined by calculation of the replacement ratio of the tritiated reference compound at different concentrations of the specific compound. This value represents the concentration needed to replace half the amount of the tritiated reference compound and is expressed as log (conc. of compound). […] Following the above described procedure the binding properties of 1,5-anhydro-D-arabinitol-2,3,4-trisphosphate was determined. […]

Counter-ions that a name gives are not always drawn.

On to `O=P(O)(O)OC1[C@H](OP(=O)(O)O)COC[C@H]1OP(=O)(O)O` [Example 2, 1,5-anhydro-D-arabinitol-2,3,4-trisphosphate pentakis (cyclohexylammonium) salt], for which, in assay [1], the “radioactivity after washing compared to the control compound (IP4)” value is reported as 30%.
Consider `O=P(O)(O)OC1[C@H](OP(=O)(O)O)COC[C@H]1OP(=O)(O)O` [1,5-anhydro-D-arabinitol-2,3,4-trisphosphate], for which the “IC50 value (concentration needed to replace half the amount of the tritiated reference compound)” value in assay [2] is given as -6.9 log (conc. of compound).
